This note sets out measurements from patent publication US8133911B2, “(R)-4-(heteroaryl) phenylethyl derivatives and pharmaceutical compositions containing them” (Dompe S.p.A, priority 2007, dated 2012).

One assay relates to PMNs C5a induced chemotaxis. Put plainly: Inhibition of C5a-induced chemotaxis of human PMNs. Type of assay: cell-based. Conditions: 1 h; compound 10^−8 M; human PMNs; C5a 10^−9 M; 60 min at 37° C.; read-out: C5a (% inhibition at 10^−8 M). As to the method:
The compounds prepared in Example 2 were evaluated in vitro for their ability to inhibit chemotaxis of polymorphonucleate leukocytes (hereinafter referred to as PMNs) and monocytes induced by the fractions of the complement C5a and C5a-desArg. For this purpose, to isolate the PMNs from heparinized human blood, taken from healthy adult volunteers, mononucleates were removed by means of sedimentation on dextran (according to the procedure disclosed by W. J. Ming et al., J. Immunol., 138, 1469, 1987) and red blood cells by a hypotonic solution. The cell vitality was calculated by exclusion with Trypan blue, whilst the ratio of the circulating polymorphonucleates was estimated on the cytocentrifugate after staining with Diff Quick.
Human recombinant fractions C5a and C5a-desArg (Sigma) were used as stimulating agents in the chemotaxis experiments, giving practically identical results.
The lyophilized C5a was dissolved in a volume of HBSS containing 0.2% bovin serum albumin BSA so thus to obtain a stock solution having a concentration of 10^−5 M to be diluted in HBSS to a concentration of 10^−9 M, for the chemotaxis assays.
In the chemotaxis experiments, the PMNs were incubated with the compounds of the invention of formula (I) for 15′ at 37° C. in an atmosphere containing 5% CO2. The chemotactic activity of the C5a was evaluated on human circulating polymorphonucleates (PMNs) resuspended in HBSS at a concentration of 1.5×10^6 PMNs per ml. During the chemotaxis assay (according to W. Falket et al., J. Immunol. Methods, 33, 239, 1980) PVP-free filters with a porosity of 5 μm and microchambers suitable for replication were used.
The compounds of Example 2 were evaluated at a concentration ranging between 10^−7 and 10^−10 M; for this purpose they were added, at the same concentration, both to the lower pores and the upper pores of the microchamber. The wells in the lower part contain the solution of C5a or the simple carrier, those in the upper part contain the suspension of PMNs.
Inhibition of C5a-induced chemotactic activity by the individual compounds was evaluated by incubating the microchamber for the chemotaxis for 60 min at 37° C. in an atmosphere containing 5% CO2.
Take `C[C@H](c1ccc(Nc2nc(C(F)(F)F)cs2)cc1)c1nnn[nH]1` [Compound 1, N-{4-[(1R)-1-(1H-tetrazol-5-yl)ethyl]phenyl}-4-(trifluoromethyl)-1,3-thiazol-2-amine]: the inhibition (in general, the relative decrease from the control value, in per cent) at 0.01 µM was found to be 60 ± 1%.

`Cc1csc(Nc2ccc([C@@H](C)c3nnn[nH]3)cc2)n1` [Compound 2, 4-methyl-N-{4-[(1R)-1-(1H-tetrazol-5-yl)ethyl]phenyl}-1,3-thiazol-2-amine]: the inhibition at 0.01 µM amounted to 45 ± 3%.

As to `C[C@H](c1ccc(Nc2nc(C(C)(C)C)cs2)cc1)c1nnn[nH]1` [Compound 3, 4-tert-butyl-N-{4-[(1R)-1-(1H-tetrazol-5-yl)ethyl]phenyl}-1,3-thiazol-2-amine], the inhibition at 0.01 µM is 42 ± 8%.

Turning to `C[C@H](c1ccc(Nc2nccs2)cc1)c1nnn[nH]1` [Compound 4, N-{4-[(1R)-1-(1H-tetrazol-5-yl)ethyl]phenyl}-1,3-thiazol-2-amine], the inhibition at 0.01 µM is 39 ± 3%.

As to `C[C@H](c1ccc(Nc2nc(C(F)(F)F)co2)cc1)c1nnn[nH]1` [Compound 5, N-{4-[(1R)-1-(1H-tetrazol-5-yl)ethyl]phenyl}-4-(trifluoromethyl)-1,3-oxazol-2-amine], the inhibition at 0.01 µM stood at 55 ± 1%.

Regarding `Cc1coc(Nc2ccc([C@@H](C)c3nnn[nH]3)cc2)n1` [Compound 6, 4-methyl-N-{4-[(1R)-1-(1H-tetrazol-5-yl)ethyl]phenyl}-1,3-oxazol-2-amine], the inhibition at 0.01 µM worked out at 51 ± 7%.

Take `C[C@H](c1ccc(Nc2nc(C(F)(F)F)cs2)cc1)c1ccnn1O` [Compound 7, 5-[(1R)-1-(4-{[4-(trifluoromethyl)-1,3-thiazol-2-yl]amino}phenyl)ethyl]-1H-pyrazol-1-ol]: the inhibition at 0.01 µM is 38 ± 6%.

Turning to `Cc1cnn(O)c1[C@H](C)c1ccc(Nc2nc(C(F)(F)F)cs2)cc1` [Compound 8, 4-methyl-5-[(1R)-1-(4-{[4-(trifluoromethyl)-1,3-thiazol-2-yl]amino}phenyl)ethyl]-1H-pyrazol-1-ol], the inhibition at 0.01 µM came out at 48 ± 5%.

Regarding `C[C@H](c1ccc(Nc2nc(C(F)(F)F)cs2)cc1)c1cnnn1O` [Compound 9, 5-[(1R)-1-(4-{[4-(trifluoromethyl)-1,3-thiazol-2-yl]amino}phenyl)ethyl]-1H-1,2,3-triazol-1-ol], the inhibition at 0.01 µM came to 44 ± 1%.

With `C[C@H](c1ccc(Nc2nc(C(F)(F)F)cs2)cc1)c1cc(O)no1` [Compound 10, 5-[(1R)-1-(4-{[4-(trifluoromethyl)-1,3-thiazol-2-yl]amino}phenyl)ethyl]isoxazol-3-ol], the inhibition at 0.01 µM is 56 ± 1%.

Regarding `C[C@H](c1ccc(Nc2nc(C(F)(F)F)cs2)cc1)c1cc(O)ns1` [Compound 12, 5-[(1R)-1-(4-{[4-(trifluoromethyl)-1,3-thiazol-2-yl]amino}phenyl)ethyl]isothiazol-3-ol], the inhibition at 0.01 µM turned out to be 45 ± 3%.

Take `C[C@H](c1ccc(Nc2nc(C(F)(F)F)cs2)cc1)c1nonc1O` [Compound 13, 4-[(1R)-1-(4-{[4-(trifluoromethyl)-1,3-thiazol-2-yl]amino}phenyl)ethyl]-1,2,5-oxadiazol-3-ol]: the inhibition at 0.01 µM amounted to 51 ± 4%.

On to `C[C@H](c1ccc(Nc2nc(C(F)(F)F)cs2)cc1)c1nsnc1O` [Compound 14, 4-[(1R)-1-(4-{[4-(trifluoromethyl)-1,3-thiazol-2-yl]amino}phenyl)ethyl]-1,2,5-thiadiazol-3-ol], for which the inhibition at 0.01 µM came to 60 ± 9%.

`C[C@H](c1ccc(Nc2nc(C(F)(F)F)cs2)cc1)c1ncnn1O` [Compound 15, 5-[(1R)-1-(4-{[4-(trifluoromethyl)-1,3-thiazol-2-yl]amino}phenyl)ethyl]-1H-1,2,4-triazol-1-ol]: the inhibition at 0.01 µM was 43 ± 1%.

The same assay, now with this note: Homo sapiens, 1 h, read-out: C5a (% inhibition at 10^−8 M).
On to `Cc1c(O)noc1[C@H](C)c1ccc(Nc2nc(C(F)(F)F)cs2)cc1` [Compound 11, 4-methyl-5-[(1R)-1-(4-{[4-(trifluoromethyl)-1,3-thiazol-2-yl]amino}phenyl)ethyl]isoxazol-3-ol], for which the inhibition at 0.01 µM came out at 45 ± 4%.
